Several values for one entry are separate records, joined by “and”; a condition that tells them apart may be missing. Equal values may be shown once.
How the values were obtained:
Format in all cases: in vivo
Details in all cases: single active compound
[1] = test system: caterpillars of the cotton bollworm (Heliothis armigera); test: Heliothis armigera test (cabbage leaf dip)
Excerpt: (§1) The expected action for a given combination of two active compounds can be calculated as follows, according to S. R. Colby, Weeds 15 (1967), 20-22: • If • X is the kill rate, expressed as a percentage of the untreated control, when employing active compound A at an application rate of m g/ha or in a concentration of m ppm, • Y is the kill rate, expressed as a percentage of the untreated control, when employing active compound B at an application rate of n g/ha or in a concentration of n ppm and • E is the kill rate, expressed as a percentage of the untreated control, when employing active compounds A and B at application rates of m and n g/ha or in a concentration of m and n ppm, • then [formula] If the actual insecticidal kill rate exceeds the calculated value, the kill of the combination is superadditive, i.e. a synergistic effect is present. In this case, the actually observed kill rate must exceed the value calculated using the above formula for the expected kill rate (E).
(§2) To produce a suitable preparation of active compound, 1 part by weight of active compound is mixed with the stated amounts of solvent and emulsifier, and the concentrate is diluted with emulsifier-containing water to the desired concentration.
Cabbage leaves (Brassica oleracea) are treated by being dipped into the preparation of active compound of the desired concentration and are populated with caterpillars of the cotton bollworm (Heliothis armigera) while the leaves are still moist.
(§3) After the desired period of time, the kill in % is determined. 100% means that all caterpillars have been killed; 0% means that none of the caterpillars have been killed. The determined kill rates are entered into Colby's formula (see sheet 1).

[2] = test system: Phaedon cochleariae larvae; test: Phaedon cochleariae larvae test (cabbage leaf dip)
Excerpt: as §1
phaedon cochlearise Larvae Teast
as §2
Cabbage leaves (Brassica oleracea) are treated by being dipped into the preparation of active compound of the desired concentration and are populated with […] (Phaedon cochleariae) while the leaves are still moist.
as §3

[3] = test system: caterpillars of the beet armyworm (Spodoptera exigua); test: Spodoptera exigua test (cabbage leaf dip)
Excerpt: as §1
The produce a suitable preparation of active compound, 1 part by weight of active compound is mixed with the stated amounds of solvent and emulsifier, and the concentrate is diluted with emulsifier-containing water to the desired concentration. […]
After the desired period of time, the kill in % is determined. […] The determined kill rates are entered into Colby's formula (see sheet 1)

For O=C(NC(=O)c1ccccc1Cl)Nc1ccc(OC(F)(F)F)cc1 [triflumuron], the “Kill in % after 3 d” value ([1]; 0.8 ppm) was 0%, the “Kill in % after 6 d” value ([1]; 4 ppm) was 0% and the “Kill in % after 3 d” value ([2]; 4 ppm) was 25% and 35%. For the same compound, the “Kill in % after 6 d” value ([2]; 4 ppm) was 65% and the “Kill in % after 6 d” value ([3]; 4 ppm) was 20%.

For CC1(C)[C@H](C(=O)O[C@H](C#N)c2cccc(Oc3ccccc3)c2)[C@@H]1C=C(Br)Br [deltamethrin], the “Kill in % after 3 d” value ([1]; 0.032 ppm) was 10% and the “Kill in % after 6 d” value ([2]; 0.16 ppm) was 50%.

In the case of CC1(C)C(C=C(Cl)Cl)C1C(=O)OC(C#N)c1ccc(F)c(Oc2ccccc2)c1 (stereo not drawn) [β-cyfluthrin], the “Kill in % after 6 d” value ([1]; 0.16 ppm) is reported as 65% and the “Kill in % after 3 d” value ([2]; 0.16 ppm) is reported as 15%.

In the case of CC1(C)C(/C=C(\Cl)C(F)(F)F)C1C(=O)OC(C#N)c1cccc(Oc2ccccc2)c1 (stereo not drawn) [lambda-cyhalothrin], the “Kill in % after 3 d” value ([2]; 0.16 ppm) is reported as 15%.

For CC1(C)C(C=C(Cl)Cl)C1C(=O)OCc1cccc(Oc2ccccc2)c1 (stereo not drawn) [permethrin], the “Kill in % after 6 d” value ([1]; 0.16 ppm) was 15% and the “Kill in % after 6 d” value ([3]; 0.16 ppm) was 0%.
